Assay results reported in US5677459A, “Methods for the preparation of modulators of acetylcholine receptors” (Sibia Neurosciences, Inc., priority 1995, dated 1997).

Experiments:
Assay type in all cases: cell-based
Settings in all cases: in vitro slices, 300 μM
[1] = system: ^3 H-Dopamine release, rat striatal slices; assay: Ligand-stimulated ^3 H-dopamine release from rat striatal slices
[2] = system: ^3 H-Norepinephrine release, rat prefrontal cortex slices; assay: Ligand-stimulated ^3 H-norepinephrine release from rat prefrontal cortex slices
Description: Measurement of ^3 H-dopamine release from rat striatal slices was performed according to the method of Sacaan et al. (J. Neurochem. 59:245 (1992)). Male Sprague-Dawley rats (250-300 g) were decapitated and the striata or olfactory tubercles dissected quickly on a cold glass surface. The tissue was chopped to a thickness of 300 μm with a McIlwain tissue chopper. After chopping again at right angles the tissue was dispersed and incubated for 10 min. at 37° C. in oxygenated Kreb's buffer. ^3 H-Dopamine (40 Ci/mmol, NEN- Dupont, Boston, Mass.) was added (50 nM) and the tissue was incubated for 30 min. in Kreb's buffer containing 10 μM pargyline and 0.5 mM ascorbic acid. Aliquots of the minced tissue were then transferred to chambers of a Brandel Superfusion system in which the tissue was supported on Whatman GF/B filter discs. The tissue was then superfused with buffer at a constant flow rate of 0.3 ml/min by means of a Brandel peristaltic pump. The perfusate was collected in plastic scintillation vials in 3-min fractions, and the radioactivity was estimated by scintillation spectrophotometry. The superfusate for the first 120 min was discarded. After two baseline fractions had been collected, the superfusion buffer was switched to fresh buffer with or without compound of interest. At the end of the experiment the filter and the tissue were removed, and the radiolabeled neurotransmitter content was estimated after extraction into scintillation fluid. The fractional efflux of radiolabeled neurotransmitter was estimated as the amount of radioactivity in the perfusate fraction relative to the total amount in the tissue.
Following essentially the same procedure as set forth above, the amount of ^3 H-norepinephrine released from rat hippocampus, thalamus and prefrontal cortex slices superfused with buffer containing (or lacking) compounds of interest was also measured.
Results of studies of the effects of an invention compound (as compared to the effect of nicotine) on the release of neurotransmitters from rat brain slices are presented in Table II. Results presented in Part A of the Table are expressed as the percent fractional release and results presented in Part B of the Table are expressed as a percentage, relative to nicotine response.

[3] = system: ^3 H-Dopamine release, rat olfactory tubercles; assay: Ligand-stimulated ^3 H-dopamine release from rat olfactory tubercles
[4] = system: ^3 H-Norepinephrine release, rat thalamus slices; assay: Ligand-stimulated ^3 H-norepinephrine release from rat thalamus slices
[5] = system: ^3 H-Norepinephrine release, rat hippocampus slices; assay: Ligand-stimulated ^3 H-norepinephrine release from rat hippocampus slices

## C#Cc1cncc(C2CCCN2C)c1.O=C(O)/C=C/C(=O)O (racemic) [R^5 = ethynyl (racemic), 5-Ethynyl-3-(1-methyl-2-pyrrolidinyl)pyridine fumarate]
[1]
  percent fractional release, ^3 H-Dopamine, Striatum: 2.56%
[2]
  percent fractional release, ^3 H-Norepinephrine, Prefrontal Cortex: 0.97%
[3]
  percent fractional release, ^3 H-Dopamine, Olfactory Tubercles: 6.68%
[4]
  percent fractional release, ^3 H-Norepinephrine, Thalamus: 0.31%
[5]
  percent fractional release, ^3 H-Norepinephrine, Hippocampus: 0.69%

## CN1CCCC1c1cncc(-c2ccc(O)c(Cl)c2)c1.O=C(O)/C=C/C(=O)O (centres unmarked) [R^5 = 3-chloro-4-hydroxyphenyl, 5-(4-hydroxy-3-chlorophenyl)-3-(1-methyl-2-pyrrolidinyl)pyridine fumarate]
[1]
  percent fractional release, ^3 H-Dopamine, Striatum: 8.34%
[2]
  percent fractional release, ^3 H-Norepinephrine, Prefrontal Cortex: 2.94%
[3]
  percent fractional release, ^3 H-Dopamine, Olfactory Tubercles: 11.4%
[4]
  percent fractional release, ^3 H-Norepinephrine, Thalamus: 3.23%
[5]
  percent fractional release, ^3 H-Norepinephrine, Hippocampus: 2.5%

## CN1CCCC1c1cncc(-c2cccc(Cl)c2)c1.O=C(O)/C=C/C(=O)O (centres unmarked) [R^5 = 3-chlorophenyl, 5-(3-Chlorophenyl)-3-(1-methyl-2-pyrrolidinyl) pyridine fumarate]
[1]
  percent fractional release, ^3 H-Dopamine, Striatum: 2.0%
[2]
  percent fractional release, ^3 H-Norepinephrine, Prefrontal Cortex: 1.7%
[3]
  percent fractional release, ^3 H-Dopamine, Olfactory Tubercles: 3.25%
[4]
  percent fractional release, ^3 H-Norepinephrine, Thalamus: 1.48%
[5]
  percent fractional release, ^3 H-Norepinephrine, Hippocampus: 1.45%

## COc1ccc(-c2cncc(C3CCCN3C)c2)cc1F.O=C(O)/C=C/C(=O)O (centres unmarked) [R^5 = 3-fluoro-4-methoxyphenyl, 5-(3-Fluoro-4-methoxyphenyl)-3-(1-methyl-2-pyrrolidinyl)pyridine fumarate]
[1]
  percent fractional release, ^3 H-Dopamine, Striatum: 3.1%
[2]
  percent fractional release, ^3 H-Norepinephrine, Prefrontal Cortex: 2.0%
[3]
  percent fractional release, ^3 H-Dopamine, Olfactory Tubercles: 2.3%
[4]
  percent fractional release, ^3 H-Norepinephrine, Thalamus: 1.75%
[5]
  percent fractional release, ^3 H-Norepinephrine, Hippocampus: 0.73%
